Experiments:
[1] = target: T1, human GPR84 (FLAG-hGPR84-eYFP) (Homo sapiens, UniProt Q9NQS5); test: [35S]GTPγS binding, membranes of cells expressing FLAG-hGPR84-eYFP; type: biochemical
T1 construct: expressed in transfected cells
Protocol: (§1) Membranes were generated from Flp-In T-REx HEK293 cells treated with 100 ng/mL doxycycline to induce expression of the receptor construct of interest. Cells were washed with ice-cold phosphate-buffered saline, removed from dishes by scraping and centrifuged at 3000 rpm for 5 min at 4 °C. Pellets were resuspended in TE buffer (10 mM Tris-HCl, 0.1 mM EDTA; pH 7.5) containing a protease inhibitor mixture (Roche Applied Science, West Sussex, UK) and homogenized with a 5 ml hand-held homogenizer. This material was centrifuged at 1500 rpm for 5 min at 4 °C and the supernatant was further centrifuged at 50000 rpm for 45 min at 4 °C. The resulting pellet was resuspended in TE buffer and protein content was assessed using a BCA protein assay kit (Pierce, Fisher Scientific, Loughborough, UK).
(§2) The reaction was then initiated with addition of [^35S]GTPγS (50 nCi per tube), and the reaction was terminated after 45 minutes incubation at 30 °C by rapid filtration through GF/C glass filters using a 24-well Brandel cell harvester (Alpha Biotech, Glasgow, UK). […] Dried filters were added to 3 mL of Ultima Gold^TM XR (PerkinElmer Life Sciences, Beaconsfield, UK) and [^35S]GTPγS binding was determined by liquid scintillation spectrometry.
All data are presented as means ± SEM of at least three independent experiments. Data analysis and curve fitting was carried out using the GraphPad Prism software package version 5.0b (GraphPad, San Diego). […] In case of inhibition experiments with antagonists an equivalent analysis was followed to fit an inverse sigmoidal curve. To perform the statistical analysis of curve parameters, data from multiple experiments were fitted independently and resulting curve fit values were analysed with indicated tests. For radioligand binding data, saturation binding curves were generated by fitting the specific binding, which was obtained by subtracting non-specific from total binding, to a one site specific binding model that allows calculation of Kd values for the radioligand at wild type and mutant receptors. To determine affinity of unlabelled ligands, data obtained in displacement assays were fit to an inverse three parameter sigmoidal curve constrained by radioligand affinity and concentration to allow for Ki calculation.

[2] = system: GPR84-Gαi2 fusion protein; test: [35S]GTPγS binding, membranes expressing GPR84-Gαi2 fusion protein; type: biochemical, human; details: for direct agonism of GPR84, [35S]GTPγS binding: DIM analogs; for allosteric effect on concentration-response curves of orthosteric agonists incl. compound-1: increasing concentrations of analog
Source text: The only previous study[3] designed to explore the mode of binding of ligands to GPR84 employed a fusion protein[31],[32] in which the G protein Gαi1 was linked in-frame to the C-terminal tail of GPR84. […] These studies indicate that following pertussis toxin treatment of cells expressing the GPR84-Cys^352Ile Gαi2 fusion protein all agonist-induced binding of [^35S]GTPγS reflects incorporation of nucleotide into the receptor-linked G protein α subunit.
as §1
(§3) Initially, 5 μg of generated membrane protein was pre-incubated for 15 min at 25 °C in assay buffer (20 mM HEPES, 5 mM MgCl2; 160 mM NaCl; 1 μM GDP; 0.05% fatty acid-free bovine serum albumin; pH 7.5) containing the indicated ligand concentrations. […] The reaction was then initiated with addition of [^35S]GTPγS (50 nCi per tube), and the reaction was terminated after 45 minutes incubation at 30 °C by rapid filtration through GF/C glass filters using a 24-well Brandel cell harvester (Alpha Biotech, Glasgow, UK). Unbound radioligand was removed from filters by three washes with ice-cold phosphate buffered saline (pH 7.4) and filters were dried for 2–3 h at room temperature. Dried filters were added to 3 mL of Ultima Gold^TM XR (PerkinElmer Life Sciences, Beaconsfield, UK) and [^35S]GTPγS binding was determined by liquid scintillation spectrometry.

[3] = target: GPR84-Cys^352Ile Gαi2 fusion protein (Homo sapiens, UniProt Q9NQS5); test: [35S]GTPγS binding, membranes expressing pertussis toxin-resistant GPR84-Cys352Ile Gαi2 fusion; operational model of allosteric modulation; type: biochemical; details: for measured potency compared between GPR84-Gαi2 and GPR84-Cys352Ile Gαi2 fusion constructs: [35S]GTPγS binding
Protocol: The only previous study[3] designed to explore the mode of binding of ligands to GPR84 employed a fusion protein[31],[32] in which the G protein Gαi1 was linked in-frame to the C-terminal tail of GPR84.
as §1, §2
To quantify the extent of allosteric interaction between pairs of ligands, data were analysed using an operational model of allosteric modulation described previously. The general version of this model can be depicted by the following equation: E=Em(τA[A](KB+αβ[B])+τB[B]KA)^n/([A]KB+KAKB+[B]KA+α[A][B])^n+(τA[A](KB+αβ[B])+τB[B]KA)^n where, E is the pharmacological effect, [A] and [B] are the orthosteric and allosteric compound concentrations at equilibrium, respectively; KA and KB are the equilibrium dissociation constants of the orthosteric and allosteric ligands respectively, denoting the binding affinities of the two ligands to the receptor; α is the binding cooperativity factor denoting the magnitude and direction of the allosteric effect on binding affinity of the orthosteric agonist to the receptor, β is the activation cooperativity factor representing the measure of the allosteric effect on orthosteric efficacy. τA and τB represent the intrinsic activity of the orthosteric and allosteric ligand, respectively. Em is the maximal possible system response and n denotes the slope factor of the transducer function. In case of global fitting of the allosterism data through this equation, Em and n values were always constrained and other parameters (KA, KB,τA, τB, α, β) were estimated.

[4] = target: T2, Arg^172Ala GPR84-Cys^352Ile Gαi2 fusion protein (Homo sapiens, UniProt Q9NQS5, R172A); test: [35S]GTPγS binding, Arg172Ala mutant fusion protein; type: biochemical
T2 construct: Cys352Ile Gαi2 (fusion partner, same polypeptide); expressed in transfected cells; host or cells: membranes of Flp-In T-REx 293 cells, doxycycline-induced
Source text: To try to identify how a MCFA might interact with GPR84 we turned to homology modelling studies. Although GPR84 is not closely related to the other GPCRs that respond to either short chain (FFA2, FFA3) or long chain (FFA1, FFA4) fatty acids[8],[9], in each of the other cases the carboxylate of the fatty acid is co-ordinated by one or more arginine residues located at or near the extracellular surface[12]–[14]. […] As we have highlighted recently[9] GPR84 and the β2-adrenoceptor are only distantly related whilst, of the currently available atomic level GPCR structures, the orexin OX1 receptor[34] has highest overall sequence identity (31%) with GPR84. We, therefore, generated and employed a new homology model of GPR84 based on the transmembrane domain architecture of the OX1 receptor (Fig. 6). However, because ECL2 of GPR84 is very similar in sequence to that of rhodopsin (Fig. 6a), with 43% residue identity over this region, we incorporated this knowledge into the modelling process. In the resulting hybrid model (Fig. 6a) Arg^172 within ECL2 is pointing into the potential binding cavity within the helical bundle. This was not the case when Nikaido et al.,[3] employed the β2-adrenoceptor-based model, probably because the ECL2 sequences of the β2-adrenoceptor and GPR84 have no relatedness. […] To assess this we mutated Arg^172 to Ala within the setting of the GPR84-Cys^352Ile Gαi2 fusion protein. […] Equivalent results were obtained in studies in which the Arg^172Ala mutation was introduced into the FLAG-hGPR84-eYFP construct (Fig. 7b).
FLAG-humanGPR84-Gαi2 fusion proteins were constructed by replacing eYFP within the FLAG-humanGPR84-eYFP-pcDNA5/FRT/TO construct with sequence corresponding to Gαi2 or Cys^352Ile Gαi2 using NotI and XhoI restriction enzymes. Site-directed mutagenesis to generate point mutants of GPR84 was performed according to the QuikChange method (Stratagene, Cheshire, UK). The identity of all constructs was verified by nucleotide sequencing.
as §3

[5] = target: T3, FLAG-Arg^174Ala hGPR84-eYFP (Homo sapiens, UniProt Q9NQS5, R174A); test: [35S]GTPγS binding, Arg174Ala mutant receptor; type: biochemical
T3 construct: expressed in transfected cells; host or cells: membranes of Flp-In T-REx 293 cells, doxycycline-induced

[6] = target: T4, Arg^172Lys GPR84-Cys^352Ile Gαi2 fusion protein (Homo sapiens, UniProt Q9NQS5, R172K); test: [35S]GTPγS binding, Arg172Lys mutant fusion protein; type: biochemical
T4 construct: Cys352Ile Gαi2 (fusion partner, same polypeptide); expressed in transfected cells; host or cells: membranes of Flp-In T-REx 293 cells, doxycycline-induced

[7] = agonist 3a, modulator compound-1
[8] = agonist compound-1, modulator 3a

Chain of GPR84-Cys^352Ile Gαi2 fusion protein (Q9NQS5 whole entry, the tested form may be a part): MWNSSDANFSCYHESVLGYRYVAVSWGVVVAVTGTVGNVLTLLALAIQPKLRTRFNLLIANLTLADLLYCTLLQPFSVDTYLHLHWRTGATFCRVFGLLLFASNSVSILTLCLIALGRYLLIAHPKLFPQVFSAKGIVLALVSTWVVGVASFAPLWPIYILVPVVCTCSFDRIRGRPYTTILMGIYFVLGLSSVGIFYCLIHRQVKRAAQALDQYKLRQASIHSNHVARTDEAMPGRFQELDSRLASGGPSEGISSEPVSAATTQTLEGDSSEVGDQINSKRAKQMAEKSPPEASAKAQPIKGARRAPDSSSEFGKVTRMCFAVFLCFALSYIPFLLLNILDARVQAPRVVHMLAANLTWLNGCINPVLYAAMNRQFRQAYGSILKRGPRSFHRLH
Chain of GPR84-Cys^352Ile Gαi2 fusion protein (P04899 2-355 C352I, further chain): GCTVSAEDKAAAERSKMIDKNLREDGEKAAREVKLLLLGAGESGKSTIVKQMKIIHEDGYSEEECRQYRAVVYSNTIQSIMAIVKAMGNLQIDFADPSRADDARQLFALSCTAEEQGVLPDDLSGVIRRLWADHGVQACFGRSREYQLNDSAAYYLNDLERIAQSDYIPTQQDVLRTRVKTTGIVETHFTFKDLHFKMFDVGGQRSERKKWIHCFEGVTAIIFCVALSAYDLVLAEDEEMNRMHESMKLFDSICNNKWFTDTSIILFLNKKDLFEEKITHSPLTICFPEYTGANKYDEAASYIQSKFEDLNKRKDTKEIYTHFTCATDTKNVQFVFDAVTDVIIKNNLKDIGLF
T1 sequence (Q9NQS5 whole entry): as the sequence (Q9NQS5 whole entry, the tested form may be a part) above
T2 sequence (Q9NQS5 2-396 R172A): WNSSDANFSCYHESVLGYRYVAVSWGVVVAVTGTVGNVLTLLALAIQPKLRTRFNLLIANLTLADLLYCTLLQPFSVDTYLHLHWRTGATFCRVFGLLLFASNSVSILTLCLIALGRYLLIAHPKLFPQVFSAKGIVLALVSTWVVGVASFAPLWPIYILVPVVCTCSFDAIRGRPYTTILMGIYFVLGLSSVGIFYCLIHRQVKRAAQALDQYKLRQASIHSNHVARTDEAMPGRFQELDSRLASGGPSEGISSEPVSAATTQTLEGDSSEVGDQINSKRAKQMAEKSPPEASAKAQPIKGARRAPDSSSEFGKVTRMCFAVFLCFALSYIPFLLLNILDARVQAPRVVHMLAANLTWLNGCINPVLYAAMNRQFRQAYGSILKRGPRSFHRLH
T4 sequence (Q9NQS5 2-396 R172K): as the sequence (Q9NQS5 2-396 R172A) above, with A171K counted along it
T3 sequence (Q9NQS5 whole entry R174A): as the sequence (Q9NQS5 whole entry, the tested form may be a part) above, with R174A counted along it

2-((S)-1-[1,4]dioxan-2-ylmethoxy)-9-(tetrahydro-pyran-4-yl-methoxymethyl)-6,7-dihydro-pyrimido[6,1-a]isoquinolin-4-one [Compound 161]
ability to limit [35S]GTPγS binding induced by EC80 concentrations of C10 (50 μM), embelin (3 μM) and DIM (5 μM) [1]: in a concentration-dependent fashion

COc1ccc2[nH]cc(Cc3c[nH]c4ccc(OC)cc34)c2c1 [3a]
direct agonism of GPR84, [35S]GTPγS binding [2]: direct agonism | allosteric effect on concentration-response curves of orthosteric agonists incl. compound-1 [2]: as large positive allosteric effects on the potency of the orthosteric agonist ligands as did DIM | logα [3, 7]: 1.43 ± 0.08 | logβ [3, 7]: 1.2 ± 0.06 | Kd ([3]; pKA (estimated for the agonist), agonist 3a, modulator compound-1): 14.8 µM | Kb ([3]; pKB (estimated for the modulator), modulator 3a, agonist compound-1): 10 µM

COc1ccc2[nH]cc(C(c3ccc(C)cc3)c3c[nH]c4ccc(OC)cc34)c2c1 [3b]
direct agonism of GPR84, [35S]GTPγS binding [2]: inactive

COc1ccc2[nH]cc(C(c3cc(F)cc(F)c3)c3c[nH]c4ccc(OC)cc34)c2c1 [3c]
affinity for GPR84 (words, inferred from functional data) [2]: lack affinity | direct agonism of GPR84, [35S]GTPγS binding [2]: inactive | allosteric effect on concentration-response curves of orthosteric agonists incl. compound-1 [2]: unable to effect the position of the concentration-response curves

O=[N+]([O-])c1ccc2[nH]cc(Cc3c[nH]c4ccc([N+](=O)[O-])cc34)c2c1 [6a]
direct agonism of GPR84, [35S]GTPγS binding [2]: direct agonism

O=c1nc(OCC2COCCO2)cc2n1CCc1cc(C#CCNc3ccccc3)ccc1-2 (stereo not shown) [Compound 107, 2-([1,4]dioxan-2-ylmethoxy)-9-(3-phenylamino-prop-1-ynyl)-6,7-dihydro-pyrimido[6,1-a]isoquinolin-4-one]
ability to limit [35S]GTPγS binding induced by EC80 concentrations of C10 (50 μM), embelin (3 μM) and DIM (5 μM) [1]: more potent than 161 | mode of blockade of DIM agonism ([1]; higher antagonist concentrations reduced maximal effect of DIM): non-competitive mode of blockade | mode of blockade of embelin effects ([1]; increasing concentrations of antagonist decreased maximal effect of embelin): non-competitive manner | potency to block DIM-stimulated [35S]GTPγS binding, Arg172Ala versus GPR84-Cys352Ile Gαi2 fusion [4]: equal potency

CCCCCCSc1nc(O)cc(O)n1 [compound-1, 2-(hexylthiol)pyridimine-4,6 diol]
effect of Arg174Ala mutation on agonist function or potency [5]: did not affect function or potency | agonist response at Arg172Lys mutant [6]: eliminated response | agonist response at Arg172Ala mutant [4]: no response | measured potency compared between GPR84-Gαi2 and GPR84-Cys352Ile Gαi2 fusion constructs [3]: indistinguishable | logα [3, 8]: 1.75 ± 0.05 | logβ [3, 8]: -0.1 ± 0.02 | logβ ([3]; agonist compound-1, modulator DIM): -0.2 ± 0.05 | logα ([3]; agonist compound-1, modulator DIM, operational model of allosterism): 2.1 ± 0.07

CCCCCCCCCCCC1=C(O)C(=O)C=C(O)C1=O [embelin, 2,5-dihydroxy-3-undecyl-2,5-cyclohexadiene-1,4-dione]
effect of Arg174Ala mutation on agonist function or potency [5]: did not affect function or potency | agonist response at Arg172Lys mutant [6]: eliminated response | agonist response at Arg172Ala mutant [4]: no response | measured potency compared between GPR84-Gαi2 and GPR84-Cys352Ile Gαi2 fusion constructs [3]: indistinguishable | logα ([3]; agonist embelin, modulator DIM): 1.22 ± 0.05 | logβ ([3]; agonist embelin, modulator DIM): 0.8 ± 0.02

CCCCCCCCCC(=O)OC [methyl decanoate]
agonist activity, [35S]GTPγS binding ([1]; membranes of doxycycline-induced cells): completely inactive
